The text below walks through data of patent US20230293517A1, “ANTAGONIST COMPOUNDS” (AdoRx Therapeutics Limited, priority 2020, published 2023).

In experiment [1] the target is human Adenosine A2a receptor (Homo sapiens (Human), UniProt P29274). As to the kind of experiment: Adenosine receptor TR-FRET binding assay (A2a). The following applies: inhibition of binding of 100 nM CA200645, CHO cell membranes. An outline of the steps:
(§1)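 CHO membranes, Tb-labelled hA1/hA2a/hA2b/hA3; tracer CA200645 at 100 nM (A1, A2a, A3) or 30 nM (A2b); buffer with saponin, 1% DMSO, pluronic; 2 h RT. NSB with 10 μM XAC. Read TR-FRET (ex 337, em 620/665 nm); IC50 → Ki via Cheng–Prusoff.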

For a further experiment, the system named is human PBMCs. Briefly: CD3/CD28 stimulated IL-2 release NECA reversal assay in human PBMCs. Conditions: PBMC, 1 uM NECA, 24 hours, IL-2 in culture supernatant. The class given is cell-based. The procedure:
Biological Example—CD3/CD28 Stimulated IL-2 Release NECA Reversal Assay in Human PBMCs
Blood is drawn from healthy volunteers using sodium citrate as the anticoagulant (0.3% final concentration). After centrifugation of the blood over Histopaque-1077, PBMCs are collected from the Histopaque/plasma interface and washed twice in PBS (300 g for 10 mins at room temp). Cells are plated at 50,000 cells/well in 150 μl RPMI/10% FCS in 96-well cell culture plates that have been precoated with 1 ug/ml CD3 antibody. 50 μl diluted compound mix is added to the cells, to obtain final concentrations of 1 ug/ml CD28 antibody, 1 uM NECA and 0.003-10 μM adenosine receptor antagonist. Assay plates are incubated for 24 hours at 37° C. in a humidified incubator. Culture supernatant is tested for IL-2 levels using the human IL-2 Tissue Culture Kit (Meso Scale Discovery). Data for dose-response curves is calculated as % inhibition with 100% inhibition defined from no agonist control wells (+CD3/28-NECA)

For experiment [2], the target named is human Adenosine A3 receptor (Homo sapiens (Human), UniProt P0DMS8). As to the kind of experiment: Adenosine receptor TR-FRET binding assay (A3). Conditions: inhibition of binding of 100 nM CA200645, CHO cell membranes. An outline of the steps: as §1
human Adenosine A3 receptor, sequence (P0DMS8 whole entry): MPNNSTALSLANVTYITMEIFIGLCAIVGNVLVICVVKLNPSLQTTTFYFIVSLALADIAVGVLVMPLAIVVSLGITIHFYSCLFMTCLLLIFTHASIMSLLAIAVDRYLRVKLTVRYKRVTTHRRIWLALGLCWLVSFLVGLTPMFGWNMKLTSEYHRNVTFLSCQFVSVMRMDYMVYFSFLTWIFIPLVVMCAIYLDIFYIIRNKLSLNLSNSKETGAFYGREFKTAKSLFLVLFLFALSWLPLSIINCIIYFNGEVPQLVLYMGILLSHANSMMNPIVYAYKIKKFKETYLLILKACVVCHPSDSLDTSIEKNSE
(In general: TR-FRET usually uses a lanthanide donor and a delayed reading to cut background.)

Experiment [3] has as its system CD8+T cells in human whole blood. As to the kind of experiment: Measurement of pCREB in CD8+T cells in human whole blood. The class given is cell-based. The following applies: 3 μM NECA, rolipram. An outline of the steps:
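Heparinised human whole blood pre-incubated 20 min at 37 °C with serially diluted A2a antagonists plus rolipram, then stimulated 60 min with 3 μM NECA (final). After fixation and red-cell lysis, white cells were permeabilized and stained for phospho-CREB and CD8; pCREB in CD8+ T cells measured by flow cytometry.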

Experiment [4] addresses human Adenosine A2b receptor (Homo sapiens (Human), UniProt P29275). As to the kind of experiment: Adenosine receptor TR-FRET binding assay (A2b). An outline of the steps: as §1
Experiment [5] deals with human Adenosine A1 receptor (Homo sapiens (Human), UniProt P30542). Briefly: Adenosine receptor TR-FRET binding assay (A1). Conditions: inhibition of binding of 100 nM CA200645, CHO cell membranes. In short, it runs like this:
as §1

The mark [6] stands for this setting: TR-FRET, inhibition of binding of 30 nM CA200645, CHO cell membranes.

Like-named read-outs stand apart in the source and are kept apart here.

human Adenosine A2a receptor, sequence (P29274 whole entry): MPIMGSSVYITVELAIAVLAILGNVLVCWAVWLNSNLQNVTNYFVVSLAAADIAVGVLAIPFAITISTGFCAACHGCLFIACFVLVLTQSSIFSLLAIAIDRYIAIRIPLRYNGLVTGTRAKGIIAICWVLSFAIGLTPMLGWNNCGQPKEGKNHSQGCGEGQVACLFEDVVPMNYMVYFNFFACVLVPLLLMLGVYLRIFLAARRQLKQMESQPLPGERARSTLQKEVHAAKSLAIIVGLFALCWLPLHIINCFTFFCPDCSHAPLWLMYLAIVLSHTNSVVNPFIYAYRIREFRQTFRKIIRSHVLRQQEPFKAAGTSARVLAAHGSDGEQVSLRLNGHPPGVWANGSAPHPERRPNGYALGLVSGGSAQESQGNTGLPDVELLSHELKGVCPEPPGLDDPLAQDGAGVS
human Adenosine A1 receptor, sequence (P30542 whole entry): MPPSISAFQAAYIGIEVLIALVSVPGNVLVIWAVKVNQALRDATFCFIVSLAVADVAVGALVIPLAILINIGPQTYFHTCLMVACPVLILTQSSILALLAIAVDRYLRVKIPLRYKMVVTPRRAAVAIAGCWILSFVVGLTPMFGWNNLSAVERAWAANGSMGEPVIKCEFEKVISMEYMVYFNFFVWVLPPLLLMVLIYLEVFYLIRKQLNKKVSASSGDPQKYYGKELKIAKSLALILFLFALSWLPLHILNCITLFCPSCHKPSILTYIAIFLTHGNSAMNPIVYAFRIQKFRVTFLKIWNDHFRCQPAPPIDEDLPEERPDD
human Adenosine A2b receptor, sequence (P29275 whole entry): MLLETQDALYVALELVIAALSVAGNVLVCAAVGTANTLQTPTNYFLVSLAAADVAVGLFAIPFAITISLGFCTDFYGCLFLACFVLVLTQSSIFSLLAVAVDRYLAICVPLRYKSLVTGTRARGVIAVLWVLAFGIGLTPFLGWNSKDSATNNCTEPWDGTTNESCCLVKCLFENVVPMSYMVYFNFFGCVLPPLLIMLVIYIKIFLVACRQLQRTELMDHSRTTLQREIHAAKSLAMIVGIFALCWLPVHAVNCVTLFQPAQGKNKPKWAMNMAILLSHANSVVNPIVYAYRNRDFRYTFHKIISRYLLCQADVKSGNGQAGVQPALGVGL

With `COC1(C#N)CCN(C(=O)Nc2nc(-c3cccc(C#N)c3)c(-c3cc(C)nc(CO)c3)s2)CC1` [Example 9.9], the Ki in experiment [1] came to 0.31 nM; in experiment [2], 491 nM; in experiment [4] (setting [6]), 3.1 nM; in experiment [5], 48 nM. Further, the IC50 was determined as 1.3 nM with human PBMCs and 20 nM in experiment [3].
Turning to `Cc1cc(-c2sc(NC(=O)N3CC[C@@H](C#N)C3)nc2-c2cccc(C#N)c2)cc(C)n1` [Example 4.10, (3R)-3-Cyano-N-[4-(3-cyanophenyl)-5-(2,6-dimethyl-4-pyridyl)thiazol-2-yl]pyrrolidine-1-carboxamide], the Ki worked out at 0.38 nM in experiment [1], 157 nM in experiment [2], 2.5 nM in experiment [4] (setting [6]) and 50 nM in experiment [5]. Besides, the values for the IC50 (in the experiment on human PBMCs; in experiment [3]) were 2.9 nM and 100 nM, respectively.
`Cc1cc(-c2sc(NC(=O)N3CCN(C4COC4)CC3)nc2-c2cccc(C#N)c2)cc(Cl)n1` [Example 3.11]: the Ki in experiment [1] amounted to 0.52 nM; in experiment [2], 1300 nM; in experiment [4] (setting [6]) it was 1.2 nM; in experiment [5] it was 102 nM. For the same molecule, the IC50 in the experiment on human PBMCs is 10.4 nM; in experiment [3] it was 670 nM.
`Cc1cc(-c2sc(NC(=O)N3CCC4(CC3)CC(=O)N(C)C4)nc2-c2cccc(C#N)c2)cc(C)n1` [Example 6.38, N-[4-(3-Cyanophenyl)-5-(2,6-dimethyl-4-pyridyl)thiazol-2-yl]-2-methyl-3-oxo-2,8-diazaspiro[4.5]decane-8-carboxamide]: the Ki is 0.83 nM in experiment [1], 278 nM in experiment [2], 3.6 nM in experiment [4] (setting [6]) and 170 nM in experiment [5]. The results for the IC50 (in the experiment with human PBMCs; in experiment [3]) were 6 nM and 580 nM, respectively.
For `Cc1cc(-c2sc(NC(=O)N3CCC4(CCC(=O)N4C)CC3)nc2-c2cccc(C#N)c2)cc(C)n1` [Example 6.94, N-[4-(3-Cyanophenyl)-5-(2,6-dimethyl-4-pyridyl)thiazol-2-yl]-1-methyl-2-oxo-1,8-diazaspiro[4.5]decane-8-carboxamide], the Ki in experiment [1] came out at 5.63 nM; in experiment [2], 719 nM; in experiment [4] (setting [6]) it was 11.3 nM; in experiment [5], 407 nM. In addition, the IC50 came to 10.5 nM with human PBMCs and 190 nM in experiment [3].
As to `Cc1cc(-c2sc(NC(=O)N3CCC4(CCNC(=O)C4)CC3)nc2-c2cccc(C#N)c2)cc(C)n1` [Example 6.26, N-[4-(3-Cyanophenyl)-5-(2,6-dimethyl-4-pyridyl)thiazol-2-yl]-10-oxo-3,9-diazaspiro[5.5]undecane-3-carboxamide], the Ki worked out at 0.79 nM in experiment [1], 302 nM in experiment [2], 3.8 nM in experiment [4] (setting [6]) and 86 nM in experiment [5]. Besides, the IC50 in the experiment with human PBMCs amounted to 3.2 nM; in experiment [3], 80 nM.
As for `Cc1cc(-c2sc(NC(=O)N3CCC4(CC3)COC4)nc2-c2cccc(C#N)c2)cc(C)n1` [Example 6.10, N-[4-(3-Cyanophenyl)-5-(2,6-dimethyl-4-pyridyl)thiazol-2-yl]-2-oxa-7-azaspiro[3.5]nonane-7-carboxamide], the Ki in experiment [1] amounted to 0.3 nM; in experiment [2], 316 nM; in experiment [4] (setting [6]) it was 1.2 nM; in experiment [5], 14 nM. For the same molecule, the IC50 in the experiment with human PBMCs was determined as 2.9 nM; in experiment [3], 40 nM.
On to `Cc1cc(-c2sc(NC(=O)N3CCC(F)(C#N)CC3)nc2-c2cccc(C#N)c2)cc(C)n1` [Example 4.7, 4-Cyano-N-[4-(3-cyanophenyl)-5-(2,6-dimethyl-4-pyridyl)thiazol-2-yl]-4-fluoro-piperidine-1-carboxamide], for which the Ki in experiment [1] turned out to be 0.05 nM; in experiment [2], 125 nM; in experiment [4] (setting [6]) it was 1.3 nM; in experiment [5], 6 nM. In addition, the concentration for half-maximal inhibition (IC50) with human PBMCs was determined as 0.8 nM; in experiment [3] it was 90 nM.
In the case of `Cc1cc(-c2sc(NC(=O)N3CCC(C)(C#N)CC3)nc2-c2cccc(C#N)c2C)cc(C)n1` [Example 18, 4-Cyano-N-[4-(3-cyano-2-methyl-phenyl)-5-(2,6-dimethyl-4-pyridyl)thiazol-2-yl]-4-methyl-piperidine-1-carboxamide], the Ki in experiment [1] came out at 0.39 nM; in experiment [2], 852 nM; in experiment [4] (setting [6]) it was 3.4 nM; in experiment [5], 248 nM. The IC50 with human PBMCs turned out to be 7.2 nM; in experiment [3] it was 410 nM.
Turning to `Cc1cc(-c2sc(NC(=O)N3CCN4C(=O)NCCC4C3)nc2-c2cccc(C#N)c2)cc(C)n1` (stereo not drawn) [Example 6.42, N-[4-(3-Cyanophenyl)-5-(2,6-dimethyl-4-pyridyl)thiazol-2-yl]-6-oxo-3,4,7,8,9,9a-hexahydro-1H-pyrazino[1,2-c]pyrimidine-2-carboxamide], the Ki was found to be 0.39 nM in experiment [1], 438 nM in experiment [2], 9 nM in experiment [4] (setting [6]) and 44 nM in experiment [5]. In addition, the figures for the IC50 (in the experiment with human PBMCs; in experiment [3]) were 5 nM and 130 nM, respectively.
For the molecule `Cc1cc(-c2sc(NC(=O)N3CCN(S(N)(=O)=O)CC3)nc2-c2cccc(C#N)c2)cc(C)n1` [Example 4.19, N-[4-(3-cyanophenyl)-5-(2,6-dimethyl-4-pyridyl)thiazol-2-yl]-4-sulfamoyl-piperazine-1-carboxamide], the Ki in experiment [1] amounted to 0.6 nM; in experiment [2], 232 nM; in experiment [4] it was 1.3 nM; in experiment [5] it was 46 nM. Moreover, the figures for the IC50 (in the experiment on human PBMCs; in experiment [3]) were 5.4 nM and 5520 nM, respectively.
Consider `Cc1cc(-c2sc(NC(=O)N3CCN4CCOCC4C3)nc2-c2cccc(C#N)c2)cc(C)n1` (stereo not drawn) [Example 4.11, N-[4-(3-Cyanophenyl)-5-(2,6-dimethyl-4-pyridyl)thiazol-2-yl]-3,4,6,7,9,9a-hexahydro-1H-pyrazino[2,1-c][1,4]oxazine-8-carboxamide], for which the Ki in experiment [1] came to 1.3 nM; in experiment [2], 482 nM; in experiment [4] (setting [6]), 4.7 nM; in experiment [5], 225 nM. Further, the figures for the IC50 (in the experiment on human PBMCs; in experiment [3]) were 3.8 nM and 220 nM, respectively.
As to `Cc1cc(-c2sc(NC(=O)N3CCN(C4COC4)CC3)nc2-c2cccc(C#N)c2)cc(C(F)(F)F)n1` [Example 6.61, N-[4-(3-Cyanophenyl)-5-[2-methyl-6-(trifluoromethyl)-4-pyridyl]thiazol-2-yl]-4-(oxetan-3-yl)piperazine-1-carboxamide], the Ki worked out at 1.52 nM in experiment [1], 57 nM in experiment [2], 3.2 nM in experiment [4] (setting [6]) and 112 nM in experiment [5]. Also, the values for the IC50 (in the experiment on human PBMCs; in experiment [3]) were 17.2 nM and 350 nM, respectively.
As to `Cc1cc(-c2sc(NC(=O)N3CCC4(CCOCC4)C3)nc2-c2cccc(C#N)c2)cc(C)n1` [Example 6.29, N-[4-(3-Cyanophenyl)-5-(2,6-dimethyl-4-pyridyl)thiazol-2-yl]-8-oxa-2-azaspiro[4.5]decane-2-carboxamide], the Ki in experiment [1] worked out at 0.95 nM; in experiment [2] it was 635 nM; in experiment [4] (setting [6]), 3.4 nM; in experiment [5] it was 228 nM. The IC50 was determined as 5.3 nM in the experiment with human PBMCs and 510 nM in experiment [3].
Consider `Cc1cc(-c2sc(NC(=O)N3CCN[C@H](C(N)=O)C3)nc2-c2cccc(C#N)c2)cc(Cl)n1` [Example 5.8, (3S)-N1-[5-(2-Chloro-6-methyl-4-pyridyl)-4-(3-cyanophenyl)thiazol-2-yl]piperazine-1,3-dicarboxamide], for which the Ki in experiment [1] was determined as 0.68 nM; in experiment [2], 474 nM; in experiment [4] (setting [6]), 1.8 nM; in experiment [5] it was 34 nM. Also, the IC50 was 18.4 nM with human PBMCs and 980 nM in experiment [3].
As to `Cc1cc(-c2sc(NC(=O)N3CC[C@H](O)C3)nc2-c2cccc(C#N)c2)cc(C)n1` [Example 4.5, (3S)-N-[4-(3-Cyanophenyl)-5-(2,6-dimethyl-4-pyridyl)thiazol-2-yl]-3-hydroxy-pyrrolidine-1-carboxamide], the Ki in experiment [1] worked out at 1.54 nM; in experiment [2], 94 nM; in experiment [4] (setting [6]), 1.4 nM; in experiment [5] it was 16 nM. Moreover, the IC50 in the experiment on human PBMCs was found to be 8.5 nM; in experiment [3], 160 nM.
For `Cc1cc(-c2sc(NC(=O)N3CCC(C(N)=O)CC3)nc2-c2cccc(C#N)c2)cc(C)n1` [Example 4.29, N1-[4-(3-Cyanophenyl)-5-(2,6-dimethyl-4-pyridyl)thiazol-2-yl]piperidine-1,4-dicarboxamide], the Ki came out at 0.13 nM in experiment [1], 112 nM in experiment [2], 1.3 nM in experiment [4] (setting [6]) and 24 nM in experiment [5]. Besides, the IC50 came to 2.1 nM with human PBMCs and 50 nM in experiment [3].

As usually defined, the Ki is a measure of affinity in units of concentration, obtained from inhibition or displacement. In general, IC50 refers to the concentration at which inhibition is half-maximal.
